The text below walks through data of PubChem BioAssay (NCI).

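These data come from cells grown in 96-well plates and exposed to compound for 48 hours at five concentrations. TGI: total growth inhibition.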

What all share (assay): NCI-60 cell line screen, 48 h
For assay [1], the system named is NCI-H460 lung.
The test system of assay [2] is HS 578T breast.
The test system of assay [3] is M14 melanoma.
Assay [4] concerns SK-MEL-5 melanoma.
The test system of assay [5] is SK-OV-3 ovarian.
The subject of assay [6] is CAKI-1 renal.
For assay [7], the system named is COLO 205 colon.
The subject of assay [8] is UO-31 renal.
The subject of assay [9] is A549 NSCLC.
Assay [10] relates to SNB-19 CNS.

As for `CC(C)=C[C@@H]1C[C@H](C)[C@H]2CC[C@H](C)[C@H]3C(=O)C(O)=C(C)C(=O)[C@]123`, the TGI in assay [1], in [2], in assay [3], in assay [4], in assay [5] and in assay [6] was over 100 µM in each case. The TGI in [7], in [8], in assay [9] and in assay [10] was over 100 µM in each case.
With `CC(C)(C)OC(=O)NCCCCC1NC(=O)[C@@H]2Cc3c([nH]c4ccccc34)C(c3ccccc3)N2C1=O` (stereo partly specified), the TGI was over 100 µM in [1]; 49.6 µM in assay [2]; 92.3 µM in assay [3]; 97.8 µM in assay [4]; over 100 µM in assay [5]; over 100 µM in [6]. The TGI was 46.9 µM in assay [7], over 100 µM in assay [8], over 100 µM in assay [9] and over 100 µM in assay [10].
`O=C1C[C@@]23CCC4(CC2=CCC[C@H]3O1)OCCO4`: the TGI in assay [1], in [2], in assay [3], in assay [4], in [5] and in assay [6] was over 100 µM throughout. The TGI in assay [7], in assay [9] and in assay [10] was over 100 µM each time.
In the case of `COc1ccc(NC(=S)Nc2cccc(C)n2)cc1`, the TGI in assay [1], in [2], in assay [3], in assay [4], in [5] and in assay [6] was over 100 µM throughout. Moreover, the TGI in [7], in assay [8] and in assay [10] was over 100 µM each time.
`FC(F)(Sc1nc2ccccc2[nH]1)c1nc2ccccc2o1`: the TGI in assay [1], in [2], in assay [3], in [4], in [5] and in [6] was over 100 µM each time. In addition, the TGI in [7], in assay [8] and in [9] was over 100 µM in each case.
As for `Nc1nc(Nc2cc(F)c(Cl)c(F)c2)cc(=O)[nH]1`, the TGI was over 100 µM in assay [1]; 66.5 µM in assay [2]; over 100 µM in [3]; over 100 µM in [4]; over 100 µM in [5]; over 100 µM in assay [6]. Besides, the TGI in assay [7], in assay [9] and in assay [10] was over 100 µM in each case.
Regarding `CC(C)[C@H](NC(=O)OCc1ccccc1)C(=O)N[C@H](/C=C/C(=O)OC(C)(C)C)CO`, the TGI in assay [1], in assay [2], in assay [3], in [4], in [5] and in assay [6] was over 100 µM in each case. For the same molecule, the TGI in assay [7], in [9] and in [10] was over 100 µM in each case.
As for `Cc1cc(NS(=O)(=O)c2ccc(NC(NC(=O)OC(C)C)(C(F)(F)F)C(F)(F)F)cc2)nc(C)n1`, the TGI in assay [1], in assay [2], in assay [3], in assay [4], in assay [5] and in assay [6] was over 100 µM throughout. Moreover, the TGI in [7], in assay [9] and in assay [10] was over 100 µM in each case.
As for `COc1ccc(OC)c2c(Nc3ccc(S(=O)(=O)O)c4cc(S(=O)(=O)O)cc(S(=O)(=O)O)c34)cc(C)nc12`, the TGI in assay [1], in assay [2], in assay [3], in [4], in assay [5] and in assay [6] was over 100 µM throughout. Besides, the TGI in [7], in [8] and in [9] was over 100 µM throughout.
For the molecule `Nc1nc2c(c(-c3ccc(F)cc3)n1)COC/C2=C\c1ccc(F)cc1`, the TGI was 34 µM in [1]; over 100 µM in [2]; over 100 µM in assay [3]; over 100 µM in assay [4]; over 100 µM in [5]; over 100 µM in assay [6]. The TGI in [7] was over 100 µM; in [8], 50 µM; in assay [10], over 100 µM.
As to `N/N=C(\N)SCc1ccc(N=C=S)cc1`, the TGI in assay [1], in assay [2], in assay [4], in assay [5], in [6] and in assay [7] was over 100 µM throughout. The TGI in assay [8], in assay [9] and in assay [10] was over 100 µM throughout.
